{"source": "patent US7087616B2", "about": "“Pyrazolyl pyrimidines” (Bayer CropScience AG, priority 2001, dated 2006)", "key": {"[1]": {"tested_on": "larvae of the mustard beetle (Phaedon cochlearae)", "experiment": "Phaedon Larvae Test", "format": "in vivo", "conditions": "500 ppm; cabbage leaves dipped", "procedure": "[table] To produce a suitable preparation of active compound, 1 part by weight of active compound is mixed with the stated amounts of solvent and emulsifier, and the concentrate is diluted with emulsifier-containing water to the desired concentration. Cabbage leaves (Brassica oleracea) are treated by being dipped into the preparation of active compound of the desired concentration and are populated with larvae of the mustard beetle (Phaedon cochlearae) while the leaves are still moist."}, "[2]": {"tested_on": "green peach aphids (Myzus persicae)", "experiment": "Myzus Test/Broad Beans", "format": "in vivo", "conditions": "broad bean seedlings dipped", "procedure": "To produce a suitable preparation of active compound, 1 part by weight of active compound is mixed with the stated amount of solvent and the stated amount of emulsifier, and the concentrate is diluted with emulsifier-containing water to the desired concentrations.\nBroad bean (Vicia faba minor) seedlings which are infested by green peach aphids (Myzus persicae) are dipped into a preparation of active compound of the desired concentration and placed into a plastic box.\nAfter the desired period of time, the kill in % is determined. 100% means that all animals have been killed; 0% means that none of the animals have been killed."}, "[3]": {"tested_on": "cotton aphid (Aphis gossypii)", "experiment": "Aphis gossypii Test", "format": "in vivo", "conditions": "144 h, read-out: Kill rate in % after 6d", "procedure": "To produce a suitable preparation of active compound, 1 part by weight of active compound is mixed with the stated amounts of solvent and emulsifier, and the concentrate is diluted with emulsifier-containing water to the desired concentration.\nCotton leaves (Gossypium hirsutum) which are heavily infested by the cotton aphid (Aphis gossypii) are treated by being dipped into the preparation of active compound of the desired concentration.\nAfter the desired period of time, the kill in % is determined. 100% means that all aphids have been killed; 0% means that none of the aphids have been killed."}, "Meloidogyne incognita": {"tested_on": "Meloidogyne incognita", "experiment": "Meloidogyne Test", "format": "in vivo", "conditions": "20 ppm, nematicidal action by gall formation on lettuce", "procedure": "(§1) To produce a suitable preparation of active compound, 1 part by weight of active compound is mixed with the stated amounts of solvent and emulsifier, and the concentrate is diluted with water to the desired concentration.\nContainers are filled with sand, solution of active compound, Meloidogyne incognita egg/larvae suspension and lettuce seeds. The lettuce seeds germinate and the plants develop. On the roots, galls are formed.\nAfter the desired period of time, the nematicidal action is determined in % by the gall formation. 100% means that no galls were found; 0% means that the number of galls on the treated plants corresponds to that of the untreated control.\nThe amount of solvent, amount of emulsifier, active compounds, active compound concentrations and test results are shown in the Tables below."}, "[4]": {"conditions": "Aust. J. Chem. 1980, 33, 2291–2298; cited from earlier work"}, "Aphis gossypii": {"tested_on": "Aphis gossypii", "experiment": "Critical Concentration/Root-systemic Action", "format": "in vivo", "conditions": "20 ppm (mg/l soil); root-systemic action, cucumber plants", "procedure": "as §1\nThe preparation of active compound is intimately mixed with soil. The concentration of the active compound in the preparation is of practically no importance here, only the amount by weight of active compound per unit volume of soil, which is given in ppm (=mg/l), being decisive. The treated soil is transferred into pots and these are planted with cucumber plants at the cotyledon stage. In this way, the active compound can be taken up from the plant and be transported into the leaves.\nAfter a further 7 days, evaluation is carried out by counting or estimating the dead animals. The root-systemic action of the active compound is deduced from the mortality figures. It is 100% if all test animals have been killed and 0% if just as many test insects are still alive as in the case of the untreated controls."}, "[5]": {"conditions": "Table A 2, emulsifier 2 parts by weight"}}, "note": "Read-outs that look alike come from different tables or passages of the source."}
{"compound": "CCOC(=O)CSc1nccc(-n2cc(-c3ccccc3)cn2)n1", "note": "[drawing 207]", "values": [{"measurement": "Kill rate in % after 7d", "setting": "[1]", "value": 100, "unit": "%"}]}
{"compound": "COC(=O)CSc1nccc(-n2cc(Br)cn2)n1", "note": "[drawing 195]", "values": [{"measurement": "Kill rate in % after 6d", "setting": "[2]; 100 ppm", "value": 100, "unit": "%"}]}
{"compound": "O=C(CSc1nccc(-n2cc(Cl)cn2)n1)OCC(F)(F)C(F)(F)C(F)(F)F", "values": [{"measurement": "pest or weed control at 500 ppm", "setting": "[3]", "value": 99, "unit": "%"}]}
{"compound": "C=Cc1cnn(-c2ccnc(SCC(=O)OCC)n2)c1", "note": "[drawing 173]", "values": [{"measurement": "Kill rate in % after 14d", "setting": "Meloidogyne incognita; [5]", "value": 80, "unit": "%"}]}
{"compound": "CCOC(=O)CSc1nccc(-n2cc(OC)cn2)n1", "values": [{"measurement": "pest or weed control at 500 ppm", "setting": "[3]; 500 ppm, cotton leaves dipped", "value": 95, "unit": "%"}]}
{"compound": "CCOC(=O)CSc1nccc(-n2cc(Cl)cn2)n1", "note": "[drawing 169]", "values": [{"measurement": "Kill rate in % after 14d", "setting": "Meloidogyne incognita; [5]", "value": 100, "unit": "%"}]}
{"compound": "O=C(O)CSc1nccc(-n2cc(-c3ccccc3)cn2)n1", "values": [{"measurement": "Kill rate in % after 7d", "setting": "[1]", "value": 100, "unit": "%"}]}
{"compound": "O=C(O)CSc1nccc(-n2cc(-c3ccc(Cl)cc3)cn2)n1", "values": [{"measurement": "Kill rate in % after 14d", "setting": "Meloidogyne incognita; [5]", "value": 80, "unit": "%"}]}
{"compound": "CC(OC(=O)CSc1nccc(-n2cc(Cl)cn2)n1)C(F)(F)C(F)(F)C(F)(F)F", "note": "(centres unmarked) [drawing 204]", "values": [{"measurement": "pest or weed control at 500 ppm", "setting": "[3]", "value": 90, "unit": "%"}]}
{"compound": "COC(=O)CSc1nccc(-n2cc(C)cn2)n1", "note": "[drawing 194]", "values": [{"measurement": "Kill rate in % after 6d", "setting": "[2]; 500 ppm", "value": 100, "unit": "%"}]}
{"compound": "COC(=O)CSc1nccc(-n2cc(C)cn2)n1", "note": "[drawing 167]", "values": [{"measurement": "Kill rate in % after 14d", "setting": "Meloidogyne incognita; Table A 1, emulsifier 1 part by weight", "value": 90, "unit": "%"}]}
{"compound": "CCOC(=O)CSc1nccc(-n2cc(C(F)(F)F)cn2)n1", "note": "[drawing 201]", "values": [{"measurement": "pest or weed control at 500 ppm", "setting": "[3]; 500 ppm, cotton leaves dipped", "value": 95, "unit": "%"}]}
{"compound": "Cc1cc(C)n(-c2ccnc(SCC(N)=O)n2)n1", "note": "[2-{[4-(3,5-dimethyl-1H-pyrazol-1-yl)-2-pyrimidinyl]thio}acetamide]", "values": [{"measurement": "enhancing effect on phleomycin", "setting": "[4]", "value": "no enhancing effect"}]}
{"compound": "O=C(O)CSc1nccc(-n2cc(Cl)cn2)n1", "note": "[drawing 172]", "values": [{"measurement": "Kill rate in % after 14d", "setting": "Meloidogyne incognita; [5]", "value": 85, "unit": "%"}]}
{"compound": "C#Cc1cnn(-c2ccnc(SCC(=O)OCC)n2)c1", "note": "[drawing 171]", "values": [{"measurement": "Kill rate in % after 14d", "setting": "Meloidogyne incognita; [5]", "value": 90, "unit": "%"}]}
{"compound": "CN(CC(=O)OCC(F)(F)C(F)(F)C(F)(F)F)c1nccc(-n2cc(Cl)cn2)n1", "note": "[drawing 202]", "values": [{"measurement": "pest or weed control at 500 ppm", "setting": "[3]", "value": 95, "unit": "%"}]}
{"compound": "CCOC(=O)CN(C)c1nccc(-n2cccn2)n1", "note": "[drawing 198]", "values": [{"measurement": "pest or weed control at 500 ppm", "setting": "[3]; 500 ppm, cotton leaves dipped", "value": 99, "unit": "%"}]}
{"compound": "CCOC(=O)CSc1nccc(-n2ccc(C(C)=O)n2)n1", "values": [{"measurement": "Kill rate in % after 14d", "setting": "Meloidogyne incognita; [5]", "value": 80, "unit": "%"}]}
{"compound": "CCOC(=O)CSc1nccc(-n2cccn2)n1", "note": "[drawing 197]", "values": [{"measurement": "Kill rate in % 7d after infection", "setting": "Aphis gossypii", "value": 90, "unit": "%"}]}
{"compound": "CCOC(=O)CSc1nccc(-n2cc(C)cn2)n1", "note": "[drawing 196]", "values": [{"measurement": "Kill rate in % after 6d", "setting": "[2]; 500 ppm", "value": 99, "unit": "%"}]}
